ChEMBL document CHEMBL3885861, “Open TG-GATES”

Species on record: Rattus norvegicus
Assay: Open TG-GATES - Regimen: Daily Repeat
Type: toxicity, organism-based, Sprague-Dawley
Set-up: regimen Daily Repeat, gender Male, age 6 weeks
Details: in vivo, po, 300 mg/kg, route gavage, dose level Middle; for APTT / Bas / Eos / Fbg / Hb / Ht / Lym / MCH / MCHC / MCV / Mono / Neu / PT / Plat / RBC / Ret / WBC: tissue Blood; for KIDNEY_L / KIDNEY_R / KIDNEY_TOTAL: tissue Kidney; for LIVER: tissue Liver; for A/G / ALP / ALT / AST / BUN / CRE / Ca / Cl / DBIL / GLC / IP / K / LDH / Na / PL / RALB / TBIL / TC / TG / TP / gamma-GTP: tissue Plasma

COC1=CC(=O)C[C@@H](C)[C@]12Oc1c(Cl)c(OC)cc(OC)c1C2=O [GRISEOFULVIN]
TERMINAL_BW (72 h, time 3 day): 228.3 g | APTT (72 h, time 3 day): 19.9 s | Bas (72 h, time 3 day): 0% | Eos (72 h, time 3 day): 1% | Fbg (72 h, time 3 day): 220 mg/dL | Hb (72 h, time 3 day): 13.6 g/dL | Ht (72 h, time 3 day): 40.4% | Lym (72 h, time 3 day): 73.2% | MCH (72 h, time 3 day): 20.8 pg | MCHC (72 h, time 3 day): 33.5% | MCV (72 h, time 3 day): 62.1 fL | Mono (72 h, time 3 day): 3% | Neu (72 h, time 3 day): 22.2% | PT (72 h, time 3 day): 12.5 s | Plat (72 h, time 3 day): 118.4 x10_4/uL | RBC (72 h, time 3 day): 651.8 x10_4/ul | Ret (72 h, time 3 day): 6.7% | WBC (72 h, time 3 day): 99.2 x10_2/uL | KIDNEY_L (72 h, time 3 day): 0.9 g | KIDNEY_R (72 h, time 3 day): 1 g | KIDNEY_TOTAL (72 h, time 3 day): 1.9 g | LIVER (72 h, time 3 day): 11.3 g | A/G (72 h, time 3 day): 1.6 | ALP (72 h, time 3 day): 836.2 IU/L | ALT (72 h, time 3 day): 44.4 IU/L | AST (72 h, time 3 day): 68.2 IU/L | BUN (72 h, time 3 day): 13.8 mg/dL | CRE (72 h, time 3 day): 0.4 mg/dL | Ca (72 h, time 3 day): 10.8 mg/dL | Cl (72 h, time 3 day): 104.4 meq/L | DBIL (72 h, time 3 day): 0.084 mg/dL | GLC (72 h, time 3 day): 218.2 mg/dL | IP (72 h, time 3 day): 7.6 mg/dL | K (72 h, time 3 day): 3.8 meq/L | LDH (72 h, time 3 day): 160.4 IU/L | Na (72 h, time 3 day): 141.2 meq/L | PL (72 h, time 3 day): 141.6 mg/dL | RALB (72 h, time 3 day): 3.4 g/dL | TBIL (72 h, time 3 day): 0.1 mg/dL | TC (72 h, time 3 day): 80.4 mg/dL | TG (72 h, time 3 day): 69 mg/dL | TP (72 h, time 3 day): 5.6 g/dL | gamma-GTP (72 h, time 3 day): 1.2 IU/L | TERMINAL_BW ([…], time 7 day): 261.2 g | TERMINAL_BW ([…], time 14 day): 309.7 g | TERMINAL_BW ([…], time 28 day): 406.6 g | APTT ([…], time 7 day): 19 s | Bas ([…], time 7 day): 0% | Eos ([…], time 7 day): 0.6% | Fbg ([…], time 7 day): 224 mg/dL | Hb ([…], time 7 day): 13.7 g/dL | Ht ([…], time 7 day): 40.7% | Lym ([…], time 7 day): 76.6% | MCH ([…], time 7 day): 21.2 pg | MCHC ([…], time 7 day): 33.7% | MCV ([…], time 7 day): 62.9 fL | Mono ([…], time 7 day): 3% | Neu ([…], time 7 day): 18.6% | PT ([…], time 7 day): 12.3 s | Plat ([…], time 7 day): 140.6 x10_4/uL | RBC ([…], time 7 day): 646.8 x10_4/ul | Ret ([…], time 7 day): 5.7% | WBC ([…], time 7 day): 118 x10_2/uL | APTT ([…], time 14 day): 19.1 s | Bas ([…], time 14 day): 0% | Eos ([…], time 14 day): 1% | Fbg ([…], time 14 day): 228.6 mg/dL | Hb ([…], time 14 day): 14.2 g/dL | Ht ([…], time 14 day): 42.2% | Lym ([…], time 14 day): 82% | MCH ([…], time 14 day): 20.9 pg | MCHC ([…], time 14 day): 33.7% | MCV ([…], time 14 day): 61.9 fL | Mono ([…], time 14 day): 2.8% | Neu ([…], time 14 day): 13.6% | PT ([…], time 14 day): 12.2 s | Plat ([…], time 14 day): 115.6 x10_4/uL | RBC ([…], time 14 day): 682 x10_4/ul | Ret ([…], time 14 day): 2.8% | WBC ([…], time 14 day): 104.2 x10_2/uL | APTT ([…], time 28 day): 23.1 s | Bas ([…], time 28 day): 0% | Eos ([…], time 28 day): 1% | Fbg ([…], time 28 day): 215.8 mg/dL | Hb ([…], time 28 day): 15.2 g/dL | Ht ([…], time 28 day): 44.7% | Lym ([…], time 28 day): 81% | MCH ([…], time 28 day): 19.9 pg | MCHC ([…], time 28 day): 34% | MCV ([…], time 28 day): 58.8 fL | Mono ([…], time 28 day): 3.2% | Neu ([…], time 28 day): 14.4% | PT ([…], time 28 day): 12.6 s | Plat ([…], time 28 day): 108.5 x10_4/uL | RBC ([…], time 28 day): 761 x10_4/ul | Ret ([…], time 28 day): 2.7% | WBC ([…], time 28 day): 136.8 x10_2/uL | KIDNEY_L ([…], time 7 day): 1.1 g | KIDNEY_R ([…], time 7 day): 1.1 g | KIDNEY_TOTAL ([…], time 7 day): 2.2 g | KIDNEY_L ([…], time 14 day): 1.3 g | KIDNEY_R ([…], time 14 day): 1.3 g | KIDNEY_TOTAL ([…], time 14 day): 2.6 g | KIDNEY_L ([…], time 28 day): 1.4 g | KIDNEY_R ([…], time 28 day): 1.3 g | KIDNEY_TOTAL ([…], time 28 day): 2.7 g | LIVER ([…], time 7 day): 12.8 g | LIVER ([…], time 14 day): 14.8 g | LIVER ([…], time 28 day): 17.3 g | A/G ([…], time 7 day): 1.4 | ALP ([…], time 7 day): 848 IU/L | ALT ([…], time 7 day): 35.6 IU/L | AST ([…], time 7 day): 58.4 IU/L | BUN ([…], time 7 day): 13.4 mg/dL | CRE ([…], time 7 day): 0.4 mg/dL | Ca ([…], time 7 day): 10.7 mg/dL | Cl ([…], time 7 day): 104 meq/L | DBIL ([…], time 7 day): 0.08 mg/dL | GLC ([…], time 7 day): 207.6 mg/dL | IP ([…], time 7 day): 7.5 mg/dL | K ([…], time 7 day): 3.7 meq/L | LDH ([…], time 7 day): 136.6 IU/L | Na ([…], time 7 day): 142.6 meq/L | PL ([…], time 7 day): 122.8 mg/dL | RALB ([…], time 7 day): 3.4 g/dL | TBIL ([…], time 7 day): 0.1 mg/dL | TC ([…], time 7 day): 70.4 mg/dL | TG ([…], time 7 day): 60 mg/dL | TP ([…], time 7 day): 5.8 g/dL | gamma-GTP ([…], time 7 day): 0.8 IU/L | A/G ([…], time 14 day): 1.5 | ALP ([…], time 14 day): 784.6 IU/L | ALT ([…], time 14 day): 32 IU/L | AST ([…], time 14 day): 51.4 IU/L | BUN ([…], time 14 day): 14.8 mg/dL | CRE ([…], time 14 day): 0.6 mg/dL | Ca ([…], time 14 day): 10.6 mg/dL | Cl ([…], time 14 day): 102.8 meq/L | DBIL ([…], time 14 day): 0.078 mg/dL | GLC ([…], time 14 day): 221.6 mg/dL | IP ([…], time 14 day): 7.5 mg/dL | K ([…], time 14 day): 4.3 meq/L | LDH ([…], time 14 day): 112.2 IU/L | Na ([…], time 14 day): 140.2 meq/L | PL ([…], time 14 day): 142.6 mg/dL | RALB ([…], time 14 day): 3.5 g/dL | TBIL ([…], time 14 day): 0.1 mg/dL | TC ([…], time 14 day): 82.2 mg/dL | TG ([…], time 14 day): 59.6 mg/dL | TP ([…], time 14 day): 5.9 g/dL | gamma-GTP ([…], time 14 day): 1 IU/L | A/G ([…], time 28 day): 1.3 | ALP ([…], time 28 day): 565.4 IU/L | ALT ([…], time 28 day): 34.8 IU/L | AST ([…], time 28 day): 55.2 IU/L | BUN ([…], time 28 day): 15.6 mg/dL | CRE ([…], time 28 day): 0.5 mg/dL | Ca ([…], time 28 day): 10.6 mg/dL | Cl ([…], time 28 day): 103 meq/L | DBIL ([…], time 28 day): 0.07 mg/dL | GLC ([…], time 28 day): 237.6 mg/dL | IP ([…], time 28 day): 7.3 mg/dL | K ([…], time 28 day): 3.7 meq/L | LDH ([…], time 28 day): 159.8 IU/L | Na ([…], time 28 day): 140.6 meq/L | PL ([…], time 28 day): 125.8 mg/dL | RALB ([…], time 28 day): 3.4 g/dL | TBIL ([…], time 28 day): 0.1 mg/dL | TC ([…], time 28 day): 70.4 mg/dL | TG ([…], time 28 day): 83 mg/dL | TP ([…], time 28 day): 6 g/dL | gamma-GTP ([…], time 28 day): 1 IU/L
